Biological target: T1, SOD1^WT (Homo sapiens, UniProt P00441)
T1 construct: The full-length constructs of SOD1-wild type (aa: 1–145); His-tag (cleaved yes); made in house; host or cells: E. coli BL21 DE3
Assay: Analytical size-exclusion chromatography (SEC) aggregation assay, SOD1^WT
Type: biochemical
Conditions: PB 30X, reducing conditions
Protocol: Fig 6 Aggregation studies of metallated and reduced SOD1^WT and SOD1^A4V on treatment with PB. ThT fluorescence was monitored during the co-incubation of metallated SOD1^WT (50 μM) (a) or SOD1^A4V (50 μM) (b) with PB at 1:30 molar ratio at 37 °C with continuous shaking, under reduced conditions. The values were normalized to the maximal ThT intensity elicited by SOD1^WT or SOD1^A4V and fitted to a Boltzmann sigmoidal equation. The control and PB-treated species were compared to analyse the effects of PB on the aggregation of SOD1^WT and SOD1^A4V. Error bars indicate the standard deviation. Analytical SEC of metallated SOD1^WT (50 μM) (c) and SOD1^A4V (50 μM) (d) with PB were analyzed under reducing conditions before and after 24 hrs and 48 hrs incubation at 37 °C. The first peak eluting at the volume was denoted as oligomerized SOD1^WT/SOD1^A4V (L). The second, third, and fourth peaks were calculated as trimer (T), dimer (D), and monomer (M) species of SOD1^WT/SOD1^A4V running at 14.5 ml, 15.7 ml, and 16.5 ml, respectively. […] The monomer (M), dimer (D), trimer (T), and large aggregate (L) species are shown as green, purple, red, and black dotted lines, respectively. All the experiments were performed for n = 3 biological replicates. […]
Fig 7 Aggregation studies of de-metallated and reduced SOD1^WT and SOD1^A4V on treatment with PB. ThT fluorescence was monitored during the co-incubation of de-metallated SOD1^WT (50 μM) (a) or SOD1^A4V (50 μM) (b) with PB at 1:30 molar ratio at 37 °C with continuous shaking, under reduced conditions. […] Analytical SEC of de-metallated SOD1^WT (50 μM) (a) and SOD1^A4V (50 μM) (b) with PB were analysed under reducing conditions before and after 24 hrs and 48 hrs incubation at 37 °C. […] The second, third, and fourth peaks were calculated as trimer (T), dimer (D), and monomer (M) species of SOD1^WT/SOD1^A4V running at 14.5 ml, 15.7 ml, and 16.5 ml, respectively. […]

[1] = Metallated SOD1^WT 50 μM, 24 and 48 hrs at 37 °C

T1 sequence (P00441 whole entry): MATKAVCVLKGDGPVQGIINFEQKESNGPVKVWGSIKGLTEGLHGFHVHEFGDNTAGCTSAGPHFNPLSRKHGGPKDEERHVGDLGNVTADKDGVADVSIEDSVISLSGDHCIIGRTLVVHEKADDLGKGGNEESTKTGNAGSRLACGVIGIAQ

CCCC[C@H](C)/C=C(C)/C=C/C(=O)O [PB, (S, 2E, 4E)-4,6-dimethyldeca-2,4-dienoic acid]
formation of trimer species (SEC) (De-metallated (EDTA) SOD1^WT 50 μM, 48hrs): insignificantly reduced compared to the control
formation of higher aggregates (SEC, eluting at 9.2 ml) [1]: may induce the formation of higher aggregates in a time-dependent manner
toxic trimer population (SEC) [1]: time-dependent alleviation of toxic trimer population
